Results on one molecule are retold here after ChEMBL document CHEMBL5729337, “Substituted eneoxindoles and uses thereof” (2022).

The target of the experiment is Mitogen-activated protein kinase kinase kinase kinase 1 (Homo sapiens, UniProt Q92918). Briefly: Biochemical Assay: The enzymatic activity of human HPK1 (MAP4K1) was monitored in a biochemical assay in the presence or absence of compounds and using a synthetic peptide substrate. An increase in phosphorylation of the peptide by HPK1 was indicative of its kinase activity.Recombinant HPK1 kinase domain produced via baculovirus infection of insect cells was obtained from Proteros (Proteros Biostructures #PR-0322) and was pre-activated in the presence of 2 mM ATP (Sigma-Aldrich, cat #GE27-2056-01) and 2 mM magnesium chloride for 16 hours at 4° C. The protein reaction mixture was then loaded to a desalting column (Thermo Fisher Scientific, Cat #89889) to remove excess ATP. HPK1 was eluted with buffer containing 20 mM Tris (2-Amino-2-(hydroxymethyl)propane-1,3-diol) pH 8.0, 150 mM NaCl, 2 mM dithiothreitol and 5% glycerol, and was frozen at −80° C. for later use. HPK1 dual phosphorylation was confirmed by mass spectrometry.
Chain of Mitogen-activated protein kinase kinase kinase kinase 1 (Q92918 whole entry, the tested form may be a part): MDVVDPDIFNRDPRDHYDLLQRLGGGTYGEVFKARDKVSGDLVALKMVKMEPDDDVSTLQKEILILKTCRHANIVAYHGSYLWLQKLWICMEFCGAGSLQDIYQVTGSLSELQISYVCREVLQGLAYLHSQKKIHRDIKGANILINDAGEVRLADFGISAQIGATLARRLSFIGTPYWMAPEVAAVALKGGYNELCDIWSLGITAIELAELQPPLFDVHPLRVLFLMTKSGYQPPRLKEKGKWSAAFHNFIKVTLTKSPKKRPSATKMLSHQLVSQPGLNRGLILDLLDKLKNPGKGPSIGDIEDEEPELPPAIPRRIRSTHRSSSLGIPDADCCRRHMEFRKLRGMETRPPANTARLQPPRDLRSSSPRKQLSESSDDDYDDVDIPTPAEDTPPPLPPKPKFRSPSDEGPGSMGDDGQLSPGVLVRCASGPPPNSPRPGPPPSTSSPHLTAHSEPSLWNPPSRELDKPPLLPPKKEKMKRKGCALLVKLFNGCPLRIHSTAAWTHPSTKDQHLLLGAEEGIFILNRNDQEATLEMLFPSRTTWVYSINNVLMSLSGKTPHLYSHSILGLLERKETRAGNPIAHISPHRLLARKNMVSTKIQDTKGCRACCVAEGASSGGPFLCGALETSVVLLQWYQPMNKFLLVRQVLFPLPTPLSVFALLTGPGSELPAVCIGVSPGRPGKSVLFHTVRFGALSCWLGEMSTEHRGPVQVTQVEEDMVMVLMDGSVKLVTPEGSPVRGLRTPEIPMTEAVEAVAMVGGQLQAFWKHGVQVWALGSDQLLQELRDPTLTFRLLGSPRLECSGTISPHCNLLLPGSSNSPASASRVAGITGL

Consider `Cc1c(-c2cc(F)c3c(c2)/C(=C/c2cc4cnccc4[nH]2)C(=O)N3)cnc2c1NCCO2`, for which the IC50 (commonly the concentration needed to halve the response being measured) worked out at 0.1 nM.
